Laboratory results taken from the supplement of paper PMC10307832.

How the values were obtained:
Assay in all cases: relative viability (nuclei count vs DMSO), 5 days (fraction); higher = more cells survive
Pemetrexed + Phenformin = compound: Nc1nc2[nH]cc(CCc3ccc(C(=O)N[C@@H](CCC(=O)O)C(=O)O)cc3)c2c(=O)[nH]1 [Pemetrexed] + N=C(N)NC(=N)NCCc1ccccc1 [Phenformin] (partner 250 µM)
Summary of the method: (§1)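 Each reported value is a median over duplicate plates. It expresses relative viability: treated-well nuclei count divided by vehicle-well nuclei count. Lung cancer cell lines in 1536-well plates were dosed by pin tool a day after seeding, alone with one drug or with a fixed anchor-drug dose plus five library-drug doses (not always all listed) in √10 steps, and nuclei were counted after 5 days.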

Pemetrexed + Luminespib = compound: Nc1nc2[nH]cc(CCc3ccc(C(=O)N[C@@H](CCC(=O)O)C(=O)O)cc3)c2c(=O)[nH]1 [Pemetrexed] + CCNC(=O)c1noc(-c2cc(C(C)C)c(O)cc2O)c1-c1ccc(CN2CCOCC2)cc1 [Luminespib] (partner 0.01 µM)
Summary of the method: as §1

Idelalisib + Linsitinib = compound: CC[C@H](Nc1ncnc2[nH]cnc12)c1nc2cccc(F)c2c(=O)n1-c1ccccc1 [Idelalisib] + C[C@]1(O)C[C@@H](c2nc(-c3ccc4ccc(-c5ccccc5)nc4c3)c3c(N)nccn32)C1 [Linsitinib] (partner 1 µM)
Summary of the method: as §1

Pemetrexed + Foretinib = compound: Nc1nc2[nH]cc(CCc3ccc(C(=O)N[C@@H](CCC(=O)O)C(=O)O)cc3)c2c(=O)[nH]1 [Pemetrexed] + COc1cc2c(Oc3ccc(NC(=O)C4(C(=O)Nc5ccc(F)cc5)CC4)cc3F)ccnc2cc1OCCCN1CCOCC1 [Foretinib] (partner 0.25 µM)
Summary of the method: as §1

Cell Line | relative viability (Pemetrexed + Phenformin; first compound 0.002 µM) | relative viability (Pemetrexed + Phenformin; first compound 0.006325 µM) | relative viability (Pemetrexed + Phenformin; first compound 0.02 µM) | relative viability (Pemetrexed + Phenformin; first compound 0.06325 µM) | relative viability (Pemetrexed + Phenformin; first compound 0.2 µM) | relative viability (Pemetrexed + Luminespib; first compound 0.002 µM) | relative viability (Pemetrexed + Luminespib; first compound 0.006325 µM) | relative viability (Pemetrexed + Luminespib; first compound 0.02 µM) | relative viability (Pemetrexed + Luminespib; first compound 0.06325 µM) | relative viability (Pemetrexed + Luminespib; first compound 0.2 µM) | relative viability (Idelalisib + Linsitinib; first compound 0.04 µM) | relative viability (Idelalisib + Linsitinib; first compound 0.1265 µM) | relative viability (Idelalisib + Linsitinib; first compound 0.4 µM) | relative viability (Idelalisib + Linsitinib; first compound 1.265 µM) | relative viability (Idelalisib + Linsitinib; first compound 4 µM) | relative viability (Pemetrexed + Foretinib; first compound 0.002 µM) | relative viability (Pemetrexed + Foretinib; first compound 0.006325 µM) | relative viability (Pemetrexed + Foretinib; first compound 0.02 µM) | relative viability (Pemetrexed + Foretinib; first compound 0.06325 µM) | relative viability (Pemetrexed + Foretinib; first compound 0.2 µM)
SK-LU-1 | 0.497 | 0.497 | 0.626 | 0.547 | 0.534 | 0.195 | 0.2 | 0.187 | 0.2 | 0.21 | 1.17 | 1.15 | 0.916 | 1.02 | 0.973 | 0.71 | 0.888 | 0.923 | 0.783 | 0.801
NCI-H1563 | 0.745 | 0.649 | 0.67 | 0.651 | 0.64 | 0.496 | 0.505 | 0.562 | 0.481 | 0.569 | 1.16 | 1.29 | 1.07 | 1.15 | 0.832 | 0.822 | 0.87 | 1.01 | 0.909 | 0.919
NCI-H1395 | 0.4 | 0.472 | 0.521 | 0.411 | 0.447 | 0.8 | 0.718 | 0.678 | 0.528 | 0.758 | 1.15 | 1.22 | 0.92 | 0.82 | 0.77 | 0.912 | 0.965 | 1.05 | 0.962 | 0.937
COR-L23 | 0.394 | 0.431 | 0.47 | 0.26 | 0.173 | 0.639 | 0.63 | 0.771 | 0.358 | 0.176 | 1 | 1.04 | 0.745 | 0.822 | 0.864 | 1.01 | 1.07 | 0.946 | 0.497 | 0.239
EMC-BAC-2 | 0.481 | 0.523 | 0.615 | 0.58 | 0.423 | 1.15 | 1.1 | 1.11 | 1.06 | 1.18 | 0.868 | 0.8 | 0.757 | 0.818 | 0.748 | 1.02 | 0.923 | 1.01 | 1 | 0.902
NCI-H1355 | 0.432 | 0.468 | 0.45 | 0.503 | 0.438 | 0.737 | 0.662 | 0.656 | 0.693 | 0.715 | 0.893 | 0.789 | 0.599 | 0.701 | 0.596 | 0.864 | 0.956 | 1.05 | 1.01 | 0.948
NCI-H1944 | – | 0.229 | 0.207 | 0.189 | 0.189 | – | 0.752 | 0.72 | 0.734 | 0.69 | 1.19 | 1.06 | 1.06 | 1.14 | 0.808 | – | 0.83 | 0.922 | 0.831 | 0.837
ABC-1 | 0.283 | 0.24 | 0.26 | 0.283 | 0.249 | – | 0.521 | 0.709 | 0.777 | 0.637 | 0.765 | 0.698 | 0.827 | 0.651 | 0.689 | 1.26 | 0.927 | 1.01 | 0.992 | 1.08
HOP-62 | 0.567 | 0.675 | 0.659 | 0.716 | 0.611 | 0.85 | 0.936 | 0.851 | 0.814 | 0.932 | 1.04 | 1.04 | – | 1.07 | 0.884 | 0.892 | 1.02 | 1.2 | 1.09 | 1.07
NCI-H2009 | 0.466 | 0.494 | 0.539 | 0.47 | 0.477 | 0.94 | 0.995 | 1.04 | 0.991 | 1.03 | 1.22 | 1.28 | 1.11 | 1.16 | 0.887 | 1.2 | 1.28 | 1.29 | 1.2 | 1.11
